Measured values published in patent EP4714953A1, “MELANOCORTIN 2-TYPE RECEPTOR ANTAGONIST” (Scohia Pharma, Inc., priority 2023, dated 2024).

biological target: T1, human MC2R (Homo sapiens, UniProt Q01718); test: Measurement of human MC2R inhibitory activity using intracellular cAMP concentration as an indicator; assay type: cell-based; conditions: test compound at 1 µM; GeneBLAzer MC2R-CRE-bla CHO-K1 cells; ACTH (Human 1-24) final concentration 3 pM; intracellular cAMP by HTRF; read-out: MC2R inhibition rate (% of inhibition)
T1 construct: host or cells: GeneBLAzer MC2R-CRE-bla CHO-K1 cells
Protocol: Experimental Example 1: Measurement of human MC2R inhibitory activity using intracellular cAMP concentration as an indicator
GeneBLAzer MC2R-CRE-bla CHO-K1 cells (Thermo Fisher Scientific) that had been cryopreserved in advance were thawed and suspended in a medium [Dulbecco's Modified Eagle Medium (Thermo Fisher Scientific) containing fetal bovine serum (10% (v/v), HyClone Laboratories), Non-Essential Amino Acids Solution (1/100 (w/w), Thermo Fisher Scientific), HEPES (25 mM, Thermo Fisher Scientific), Penicillin/Streptomycin (1/100 (w/w), Fujifilm Wako)]. After centrifuging the cell suspension, the supernatant was removed, the cells were suspended in D-PBS(-) (Fujifilm Wako), and the supernatant was removed again after centrifugation. The cells were resuspended in an assay buffer [Hank's Balanced Salt Solution (Thermo Fisher Scientific) containing HEPES pH 7.5 (10 mM, Thermo Fisher Scientific), fatty acid-free bovine serum albumin (0.01% (w/v), Sigma), IBMX (500 µM, Fujifilm Wako)] and added to a 384-well white plate (Greiner) at 1,500 cells/well. Then, the test compound prepared using the assay buffer was added, and after standing for 20 min, an assay buffer containing ACTH (Human 1-24) (Peptide Institute) was added (ACTH final concentration, 3 pM). After standing at room temperature for 30 min, the intracellular cAMP level was measured using cAMP Gs HiRange kit HTRF (PerkinElmer). The inhibition rate (%) of the compound against MC2R was calculated using the following formula. Inhibition rate (%) = […] [formula] • A: cAMP concentration calculated from wells containing 3 pM ACTH (1-24) • B: cAMP concentration calculated from wells without addition of 3 pM ACTH (1-24) • C: cAMP concentration calculated from wells containing 3 pM ACTH (1-24) and test compound at concentration determined in advance

T1 sequence (Q01718 whole entry): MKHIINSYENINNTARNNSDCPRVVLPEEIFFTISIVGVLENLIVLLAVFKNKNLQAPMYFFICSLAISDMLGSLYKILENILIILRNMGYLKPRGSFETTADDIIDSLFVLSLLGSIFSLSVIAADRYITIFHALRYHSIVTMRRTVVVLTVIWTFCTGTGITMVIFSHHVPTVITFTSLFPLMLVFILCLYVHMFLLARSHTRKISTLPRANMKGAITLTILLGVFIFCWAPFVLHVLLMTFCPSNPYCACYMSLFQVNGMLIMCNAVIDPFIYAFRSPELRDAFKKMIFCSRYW
T1 sequence (Q8TCY5 whole entry partner): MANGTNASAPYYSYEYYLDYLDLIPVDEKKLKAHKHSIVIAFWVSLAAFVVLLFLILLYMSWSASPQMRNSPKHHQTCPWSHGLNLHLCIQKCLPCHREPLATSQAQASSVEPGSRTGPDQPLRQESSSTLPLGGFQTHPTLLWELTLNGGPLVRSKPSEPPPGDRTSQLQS

| Compound | inhibition at 1 µM |
| --- | --- |
| CCOc1ncccc1-c1ccc(N2CCN3C(=O)N(c4ccc(Cl)cc4C(F)(F)F)C[C@@H]3C2)c(C(=O)NC2CCNC2)n1 (stereo partly drawn) [Example 28, 3-[(8aS)-2-[4-chloro-2-(trifluoromethyl)phenyl]-3-oxo-5,6,8,8a-tetrahydro-1H-imidazo[1,5-a]pyrazin-7-yl]-6-(2-ethoxypyridin-3-yl)-N-pyrrolidin-3-ylpyridine-2-carboxamide] | 100% |
| CCOc1ncccc1-c1ccc(N2C[C@H]3CN(c4ccc(Cl)cc4C(F)(F)F)C(=O)N3C[C@H]2CC)c(C(=O)NC2CNC(=O)C2)n1 (stereo partly drawn) [Example 29, 3-[(6R,8aS)-2-[4-chloro-2-(trifluoromethyl)phenyl]-6-ethyl-3-oxo-5,6,8,8a-tetrahydro-1H-imidazo[1,5-a]pyrazin-7-yl]-6-(2-ethoxypyridin-3-yl)-N-(5-oxopyrrolidin-3-yl)pyridine-2-carboxamide] | 100% |
| CCOc1ncccc1-c1ccc(N2C[C@H]3CN(c4ccc(Cl)cc4C(F)(F)F)C(=O)N3C[C@H]2CC)c(C(=O)N[C@@H]2CNC(=O)C2)n1 [Example 39, 3-[(6R,8aS)-2-[4-chloro-2-(trifluoromethyl)phenyl]-6-ethyl-3-oxo-5,6,8,8a-tetrahydro-1H-imidazo[1,5-a]pyrazin-7-yl]-6-(2-ethoxypyridin-3-yl)-N-[(3S)-5-oxopyrrolidin-3-yl]pyridine-2-carboxamide] | 100% |
| CCOc1ncccc1-c1ccc(N2C[C@H]3CN(c4ccc(Cl)cc4C(F)(F)F)C(=O)N3C[C@H]2CC)c(C(=O)NC2CC(=O)N(C)C2)n1 (stereo partly drawn) [Example 42, 3-[(6R,8aS)-2-[4-chloro-2-(trifluoromethyl)phenyl]-6-ethyl-3-oxo-5,6,8,8a-tetrahydro-1H-imidazo[1,5-a]pyrazin-7-yl]-6-(2-ethoxypyridin-3-yl)-N-(1-methyl-5-oxopyrrolidin-3-yl)pyridine-2-carboxamide] | 100% |
| CCOc1ncccc1-c1ccc(N2C[C@H]3CN(c4ccc(Cl)cc4C(F)(F)F)C(=O)N3C[C@H]2CC)c(C(=O)NC[C@H]2CCN2C(=O)OC(C)(C)C)n1 [Example 43, tert-butyl (2R)-2-[[[3-[(6R,8aS)-2-[4-chloro-2-(trifluoromethyl)phenyl]-6-ethyl-3-oxo-5,6,8,8a-tetrahydro-1H-imidazo[1,5-a]pyrazin-7-yl]-6-(2-ethoxypyridin-3-yl)pyridine-2-carbonyl]amino]methyl]azetidine-1-carboxylate] | 100% |
| CCOc1ncccc1-c1ccc(N2C[C@H]3CN(c4ccc(Cl)cc4C(F)(F)F)C(=O)N3C[C@H]2CC)c(C(=O)NC[C@@H]2CCN2C(=O)OC(C)(C)C)n1 [Example 45, tert-butyl (2S)-2-[[[3-[(6R,8aS)-2-[4-chloro-2-(trifluoromethyl)phenyl]-6-ethyl-3-oxo-5,6,8,8a-tetrahydro-1H-imidazo[1,5-a]pyrazin-7-yl]-6-(2-ethoxypyridin-3-yl)pyridine-2-carbonyl]amino]methyl]azetidine-1-carboxylate] | 100% |
| CCOc1ncccc1-c1ccc(N2C[C@H]3CN(c4ccc(Cl)cc4C(F)(F)F)C(=O)N3C[C@H]2CC)c(C(=O)N[C@H]2CCNC2=O)n1 [Example 48, 3-[(6R,8aS)-2-[4-chloro-2-(trifluoromethyl)phenyl]-6-ethyl-3-oxo-5,6,8,8a-tetrahydro-1H-imidazo[1,5-a]pyrazin-7-yl]-6-(2-ethoxypyridin-3-yl)-N-[(3S)-2-oxopyrrolidin-3-yl]pyridine-2-carboxamide] | 100% |

Continued, values first:

| inhibition at 1 µM | Compound |
| --- | --- |
| 100% | CCOc1ncccc1-c1ccc(N2C[C@H]3CN(c4ccc(Cl)cc4C(F)(F)F)C(=O)N3C[C@H]2CC)c(C(=O)NCCN(C)C)n1 [Example 26, 3-[(6R,8aS)-2-[4-chloro-2-(trifluoromethyl)phenyl]-6-ethyl-3-oxo-5,6,8,8a-tetrahydro-1H-imidazo[1,5-a]pyrazin-7-yl]-N-[2-(dimethylamino)ethyl]-6-(2-ethoxypyridin-3-yl)pyridine-2-carboxamide] |
| 100% | CCOc1ncccc1-c1ccc(N2C[C@H]3CN(c4ccc(Cl)cc4C(F)(F)F)C(=O)N3C[C@H]2CC)c(C(N)=O)n1 [Example 27, 3-[(6R,8aS)-2-[4-chloro-2-(trifluoromethyl)phenyl]-6-ethyl-3-oxo-5,6,8,8a-tetrahydro-1H-imidazo[1,5-a]pyrazin-7-yl]-6-(2-ethoxypyridin-3-yl)pyridine-2-carboxamide] |
| 100% | CCOc1ncccc1-c1ccc(N2C[C@H]3CN(c4ccc(Cl)cc4C(F)(F)F)C(=O)N3C[C@H]2CC)c(C(=O)NCC2(O)CC2)n1 [Example 32, 3-[(6R,8aS)-2-[4-chloro-2-(trifluoromethyl)phenyl]-6-ethyl-3-oxo-5,6,8,8a-tetrahydro-1H-imidazo[1,5-a]pyrazin-7-yl]-6-(2-ethoxypyridin-3-yl)-N-[(1-hydroxycyclopropyl)methyl]pyridine-2-carboxamide] |
| 100% | CCOc1ncccc1-c1ccc(N2C[C@H]3CN(c4ccc(Cl)cc4C(F)(F)F)C(=O)N3C[C@H]2CC)c(C(=O)NC[C@@H](C)O)n1 [Example 33, 3-[(6R,8aS)-2-[4-chloro-2-(trifluoromethyl)phenyl]-6-ethyl-3-oxo-5,6,8,8a-tetrahydro-1H-imidazo[1,5-a]pyrazin-7-yl]-6-(2-ethoxypyridin-3-yl)-N-[(2R)-2-hydroxypropyl]pyridine-2-carboxamide] |
| 100% | CCOc1ncccc1-c1ccc(N2C[C@H]3CN(c4ccc(Cl)cc4C(F)(F)F)C(=O)N3C[C@H]2CC)c(C(=O)NCC(C)(C)O)n1 [Example 35, 3-[(6R,8aS)-2-[4-chloro-2-(trifluoromethyl)phenyl]-6-ethyl-3-oxo-5,6,8,8a-tetrahydro-1H-imidazo[1,5-a]pyrazin-7-yl]-6-(2-ethoxypyridin-3-yl)-N-(2-hydroxy-2-methylpropyl)pyridine-2-carboxamide] |
| 100% | CCOc1ncccc1-c1ccc(N2C[C@H]3CN(c4ccc(Cl)cc4C(F)(F)F)C(=O)N3C[C@H]2CC)c(C(=O)NCCNC(C)=O)n1 [Example 36, N-(2-acetamidoethyl)-3-[(6R,8aS)-2-[4-chloro-2-(trifluoromethyl)phenyl]-6-ethyl-3-oxo-5,6,8,8a-tetrahydro-1H-imidazo[1,5-a]pyrazin-7-yl]-6-(2-ethoxypyridin-3-yl)pyridine-2-carboxamide] |
| 91% | CCOc1ncccc1-c1ccc(N2C[C@H]3CN(c4ccc(Cl)cc4C(F)(F)F)C(=O)N3C[C@H]2CC)c(C(=O)O)n1 [Example 38a, 3-[(6R,8aS)-2-[4-chloro-2-(trifluoromethyl)phenyl]-6-ethyl-3-oxo-5,6,8,8a-tetrahydro-1H-imidazo[1,5-a]pyrazin-7-yl]-6-(2-ethoxy-3-pyridyl)pyridine-2-carboxylic acid] |
| 100% | CCOc1ncccc1-c1ccc(N2C[C@H]3CN(c4ccc(Cl)cc4C(F)(F)F)C(=O)N3C[C@H]2CC)c(C(=O)N[C@H](C)C(=O)NC)n1 [Example 40, 3-[(6R,8aS)-2-[4-chloro-2-(trifluoromethyl)phenyl]-6-ethyl-3-oxo-5,6,8,8a-tetrahydro-1H-imidazo[1,5-a]pyrazin-7-yl]-6-(2-ethoxypyridin-3-yl)-N-[(2R)-1-(methylamino)-1-oxopropan-2-yl]pyridine-2-carboxamide] |
| 100% | CCOc1ncccc1-c1ccc(N2C[C@H]3CN(c4ccc(Cl)cc4C(F)(F)F)C(=O)N3C[C@H]2CC)c(C(=O)N[C@@H](C)C(=O)NC)n1 [Example 41, 3-[(6R,8aS)-2-[4-chloro-2-(trifluoromethyl)phenyl]-6-ethyl-3-oxo-5,6,8,8a-tetrahydro-1H-imidazo[1,5-a]pyrazin-7-yl]-6-(2-ethoxypyridin-3-yl)-N-[(2S)-1-(methylamino)-1-oxopropan-2-yl]pyridine-2-carboxamide] |
| 100% | CCOc1ncccc1-c1ccc(N2C[C@H]3CN(c4ccc(Cl)cc4C(F)(F)F)C(=O)N3C[C@H]2CC)c(C(=O)NC[C@H]2CCN2)n1 [Example 44, 3-[(6R,8aS)-2-[4-chloro-2-(trifluoromethyl)phenyl]-6-ethyl-3-oxo-5,6,8,8a-tetrahydro-1H-imidazo[1,5-a]pyrazin-7-yl]-N-[[(2R)-azetidin-2-yl]methyl]-6-(2-ethoxypyridin-3-yl)pyridine-2-carboxamide] |
| 100% | CCOc1ncccc1-c1ccc(N2C[C@H]3CN(c4ccc(Cl)cc4C(F)(F)F)C(=O)N3C[C@H]2CC)c(C(=O)NC[C@@H]2CCN2)n1 [Example 46, 3-[(6R,8aS)-2-[4-chloro-2-(trifluoromethyl)phenyl]-6-ethyl-3-oxo-5,6,8,8a-tetrahydro-1H-imidazo[1,5-a]pyrazin-7-yl]-N-[[(2S)-azetidin-2-yl]methyl]-6-(2-ethoxypyridin-3-yl)pyridine-2-carboxamide] |
